Results as given in patent US20240016775A1, “ANTI-CORONAVIRUS APPLICATION OF POLY ADP RIBOSE POLYMERASE INHIBITOR” (FUKANG (SHANGHAI) HEALTH TECHNOLOGY CO., LTD, priority 2020, published 2024).
Values joined by “and” are separate entries in the source; they are usually repeats but may differ in a detail not shown here. Equal entries are not always repeated. Structures can show the parent of a compound that is named as a salt. Where two headings read alike, the source gives them in different places.

Legend:
[1] = cited from earlier work
SARS-CoV-2 [2] = test: microbe, parasite or virus in culture; type: cell-based; settings: for Inhibiting rate, %: 3 μM; for inhibition at 3 µM: read-out: Inhibiting rate, %, 3 μM
[3] = some healthy subjects, 3 hours after taking the drug; cited from earlier work
[4] = rats, Male, cited from earlier work
[5] = rats, oral 54 mg/kg, cited from earlier work
[6] = Body weight of rats, 28 days oral administration and 28 days without; type: in vivo, Sprague-Dawley rats; settings: oral 20/60/160 mg/kg, then 28 days off
Experimental: (§1) Sprague-Dawley rats were purchased from Animal Experiment Center of Shanghai, China. The experimental animals were housed in groups in wire cages, with no more than 6 animals per cage. The experimental conditions were good (temperature 25±2° C.; relative humidity 50±20%) and light-dark cycle (12 hours/12 hours). 144 Sprague-Dawley rats were randomized into 4 groups (18 animals/gender/group). CVL218 was administered at doses of 20, 40, 60 and 160 mg/kg. For all groups, 20 rats (10 animals/gender/group) were randomly selected, euthanized on day 28, and sections of various tissues and organs were obtained and frozen. Ten (5/gender/group) animals were euthanized after a 28-day drug-free period, and sections of their tissues and organs were taken and frozen. Six animals (3/gender/group) were euthanized after blood samples were collected. For pharmacokinetics and safety evaluations, the blood concentrations, clinical symptoms, mortality and body weight of animals were examined.

SARS-CoV-2 [7] = test: Time-of-addition assay (duration of action) in Vero E6 cells; type: cell-based; settings: CVL218 20 μM, remdesivir 10 μM, 14 h after infection
[8] = Pharmacokinetic study of CVL218 in rats; type: in vivo, Sprague-Dawley rats
Experimental: as §1

IL-6 production in PBMCs = type: cell-based; settings: 12 hours
[9] = Safety study in cynomolgus monkeys (body weight); type: in vivo; settings: 5/20/80 mg/kg, 28 days, then 28 days off
Experimental: Healthy male and female monkeys, aged 3-4 years, were purchased from Landao Biotechnology, Guangdong, China. Animals were fed in accordance with the Guide for Care and Use of Laboratory Animals. The animals were randomized (5 animals/gender/group), and were fed with CVL218 via nasogastric at dose levels of 0 (control), 5, 20 and 80 mg/kg. Monkeys were observed twice daily for any changes in viability/mortality and behavior, response to treatment or health status.

[10] = Tissue distribution study of CVL218 in rats (LC-MS-MS); type: in vivo, Sprague-Dawley rats; settings: for Tissue concentration, Brain / Tissue concentration, Heart / Tissue concentration, Kidney / Tissue concentration, Liver / Tissue concentration, Lung / Tissue concentration, Spleen / Tissue concentration, Stomach: oral 20 mg/kg
Experimental: Sprague-Dawley rats were randomized into 3 time-point groups (3 animals/gender/group). At 3, 6 and 8 hours after CVL218 administration, animals were sacrificed, and the brain, heart, lung, liver, spleen, stomach and kidney tissues were collected. The tissue samples were washed with ice-cold physiological saline and weighed after excess liquid was removed with paper towels. After tissue sample solutions were weighed, they were stored at −20±2° C. until the drug concentration was determined by LC-MS-MS.

SARS-CoV-2 [11] = tested on: SARS-CoV-2
[12] = Cytotoxicity test on Vero-E6 cells (CCK-8); type: cell-based; settings: African green monkey, 48 h, read-out: CC50 (50% cytotoxic concentration)
Experimental: (§2) 2.1 Experimental Groups: • 1) Mefuparib hydrochloride (CVL218) group • 2) DMSO control group • 3) Olaparib group • 4) Cell control group: containing only cells, without adding drugs • 5) Blank control group (only medium without cells)
(§3) Mefuparib hydrochloride was obtained from Pukang (Shanghai) Health Technology Co., Ltd., with a purity of >99.0%. It was dissolved in DMSO and then diluted in gradients according to Table 4 below (the maintenance solution was DMEM medium). Serial dilutions were performed for DMSO according to the same dilution gradients.
(§4) Vero-E6 cells were seeded into 96-well culture plates at 1×10^4 cells/well, and cultured in DMEM containing 10% fetal bovine serum for 16 hours to become 80% pellets, then the cell culture medium was aspirated and discarded from each well, the cells were washed once with sterile PBS, and different drugs (200 μl/well) diluted in the cell maintenance solution were added to each well according to the experimental groups, with 3 duplicate wells set up for each group, and then the wells were placed in a 37° C., 5% CO2 incubator for 48 h.
(§5) For the DMSO control group, DMSO diluted with the cell maintenance solution to the corresponding concentration was added, and for the cell control group, 200 μl of the cell maintenance solution was added. For the blank control group, only cell maintenance solution without cells was added.
(§6) 2.3.2 Detection of toxicity of mefuparib hydrochloride and Olaparib on Vero-E6 The cell state was observed and recorded under an inverted microscope, and the toxicity of the drug to Vero-E6 cells was detected according to the operation instructions of the CCK-8 kit: 20 μl of CCK-8 solution was added to all experimental wells and control wells, and the cell culture plate was placed in a 37° C., 5% CO2 incubator for 1 hour, and then its absorbance value at the wavelength of 450 nm was measured using a multifunctional microplate reader.

Vero-E6 cells = test: Cytotoxicity test on Vero-E6 cells (CCK-8); type: cell-based; settings: 30 μM
Experimental: as §2, §3, §4, §5, §6

[13] = Severe acute respiratory syndrome coronavirus 2, Vero C1008, 48 h, Vero-E6, MOI 0.05, 48 h

## CCOC(=O)c1c(CSc2ccccc2)n(C)c2cc(Br)c(O)c(CN(C)C)c12 [Arbidol, arbidol]
[1]; nausea, diarrhea, dizziness, increased serum transaminases
  Adverse events, share of subjects: about 6.2%
[1]; single oral dose 200 mg
  Peak concentration: 614.1 ± 342.5 ng/mL
[1]; single oral dose 400 mg
  Peak concentration: 904.2 ± 355.6 ng/mL
[1]; single oral dose 600 mg
  Peak concentration: 975.1 ± 661.0 ng/mL
SARS-CoV-2 [2]; Vero-E6, MOI 0.05, 48 h
  Inhibiting rate, %: 21.73%
SARS-CoV-2 [2]; [13]
  inhibition at 3 µM: 21%
SARS-CoV-2 [2]; Severe acute respiratory syndrome coronavirus 2, Vero C1008, 48 h, read-out: Inhibiting rate, %, 30 μM, Vero-E6, MOI 0.05, 48 h
  inhibition at 30 µM: 98.9%
[3]
  Heart rate decrease: 2-24 beats/minute
[4]; oral 18 mg/kg
  AUC0-t: 1956 ± 895 ngh/mL
  AUC0-∞: 2224 ± 1058 ngh/mL
  Cmax: 1002 ± 298 ng/mL
  Tmax: 0.28 h
  t1/2: 3.6 ± 1.2 h
[4]; oral 54 mg/kg
  AUC0-t: 6790 ± 2749 ngh/mL
  AUC0-∞: 7558 ± 2877 ngh/mL
  Cmax: 4711 ± 2361 ng/mL
  Tmax: 0.18 h
  t1/2: 3.3 ± 0.7 h
[5]; 5 min
  Tissue concentration, Brain: 101 ± 67
  Tissue concentration, Heart: 72 ± 47
  Tissue concentration, Kidney: 79 ± 54
  Tissue concentration, Liver: 104 ± 82
  Tissue concentration, Spleen: 48 ± 35
  Tissue concentration, Stomach: 8210 ± 5410
[5]; 15 min
  Tissue concentration, Brain: 50 ± 10
  Tissue concentration, Heart: 132 ± 69
  Tissue concentration, Kidney: 259 ± 190
  Tissue concentration, Liver: 963 ± 290
  Tissue concentration, Spleen: 519 ± 281
  Tissue concentration, Stomach: 23180 ± 10170
[5]; 360 min
  Tissue concentration, Brain: 31 ± 21
  Tissue concentration, Heart: 41 ± 28
  Tissue concentration, Kidney: 58 ± 21
  Tissue concentration, Liver: 262 ± 175
  Tissue concentration, Spleen: 143 ± 51
  Tissue concentration, Stomach: 52750 ± 3059

## CNCc1ccc(-c2cc3cc(F)cc(C(N)=O)c3o2)cc1.Cl [CVL218, mefuparib hydrochloride]
[6]
  Body weight versus control group: no significant difference in body weight
SARS-CoV-2 [7]
  Antiviral activity, after the virus enters: significantly inhibit the replication after viral entry
  Antiviral activity, when the virus enters: partially antagonize viral entry
SARS-CoV-2 [7]; versus DMSO
  Antiviral activity, whole process treatment: stronger antiviral activity
SARS-CoV-2 [2]; Vero-E6, MOI 0.05, 48 h, hydrochloride
  Inhibiting rate, %: 35% and 35.16%
SARS-CoV-2 [2]; different batches, hydrochloride, read-out: EC50 against SARS-CoV-2
  EC50: 7.67 µM and 5.12 µM
[8]; oral 20 mg/kg, Female
  AUC0-t: 2196 ± 228 ngh/mL
  AUC0-∞: 2222 ± 241 ngh/mL
  Cmax: 502 ± 80 ng/mL
  MRT0-∞: 3.16 h
  Tmax: 3.0 h
  t1/2: 1.1 ± 0.16 h
[8]; oral 20 mg/kg, Male
  AUC0-t: 1070 ± 176 ngh/mL
  AUC0-∞: 1111 ± 192 ngh/mL
  Cmax: 234 ± 35 ng/mL
  MRT0-∞: 3.91 h
  Tmax: 4.0 h
  t1/2: 1.19 ± 0.09 h
[8]; oral 20 mg/kg, Total
  AUC0-t: 1633 ± 643 ngh/mL
  AUC0-∞: 1666 ± 639 ngh/mL
  Cmax: 368 ± 157 ng/mL
  MRT0-∞: 3.54 h
  Tmax: 3.5 h
  t1/2: 1.15 ± 0.13 h
[8]; oral 40 mg/kg, Female
  AUC0-t: 5220 ± 1113 ngh/mL
  AUC0-∞: 5242 ± 1115 ngh/mL
  Cmax: 940 ± 117 ng/mL
  MRT0-∞: 4.05 h
  Tmax: 2.0 h
  t1/2: 1.29 ± 0.21 h
[8]; oral 40 mg/kg, Male
  AUC0-t: 2802 ± 967 ngh/mL
  AUC0-∞: 2830 ± 983 ngh/mL
  Cmax: 510 ± 259 ng/mL
  MRT0-∞: 4.51 h
  Tmax: 3.0 h
  t1/2: 1.3 ± 0.33 h
[8]; oral 40 mg/kg, Total
  AUC0-t: 4011 ± 1620 ngh/mL
  AUC0-∞: 4036 ± 1620 ngh/mL
  Cmax: 725 ± 296 ng/mL
  MRT0-∞: 4.28 h
  Tmax: 2.5 h
  t1/2: 1.3 ± 0.24 h
IL-6 production in PBMCs; 1 μM
  Reduction of CpG-induced IL-6 production: 50%
IL-6 production in PBMCs; 3 μM
  Reduction of CpG-induced IL-6 production: 72.65%
[9]
  Body weight versus control group: no significant difference in body weight
[10]
  Tissue/serum drug concentration ratio, Brain: 9.728 ± 1.130
  Tissue/serum drug concentration ratio, Heart: 16.514 ± 1.348
  Tissue/serum drug concentration ratio, Kidney: 41.307 ± 5.391
  Tissue/serum drug concentration ratio, Liver: 46.780 ± 5.215
  Tissue/serum drug concentration ratio, Spleen: 54.897 ± 6.250
  Tissue/serum drug concentration ratio, Stomach: 22.133 ± 7.130
[10]; hydrochloride
  Tissue/serum drug concentration ratio, Lung: 188 and 188.364 ± 28.467
[10]; 180 min
  Tissue concentration, Brain: 3580 ± 416
  Tissue concentration, Heart: 6077 ± 496
  Tissue concentration, Kidney: 15201 ± 1984
  Tissue concentration, Liver: 17215 ± 1919
  Tissue concentration, Lung: 69318 ± 10476
  Tissue concentration, Spleen: 20202 ± 2300
  Tissue concentration, Stomach: 8145 ± 2624
[10]; 360 min
  Tissue concentration, Brain: 998 ± 220
  Tissue concentration, Heart: 1390 ± 292
  Tissue concentration, Kidney: 3903 ± 594
  Tissue concentration, Liver: 2187 ± 859
  Tissue concentration, Lung: 18858 ± 2365
  Tissue concentration, Spleen: 6358 ± 1058
  Tissue concentration, Stomach: 1871 ± 813
[10]; 480 min
  Tissue concentration, Brain: 317 ± 55
  Tissue concentration, Heart: 275 ± 80
  Tissue concentration, Kidney: 993 ± 327
  Tissue concentration, Liver: 213 ± 88
  Tissue concentration, Lung: 4183 ± 847
  Tissue concentration, Spleen: 1475 ± 324
  Tissue concentration, Stomach: 569 ± 293
SARS-CoV-2 [11]; 25 μM
  Cytopathic effect in infected cells: No apparent cytopathic effect
SARS-CoV-2 [11]; 5, 15, 25 μM, 14 h after infection, versus DMSO treated cells
  Expression of the viral nucleoprotein (NP): significantly lower

## O=C(c1cc(Cc2n[nH]c(=O)c3ccccc23)ccc1F)N1CCN(C(=O)C2CC2)CC1 [Olaparib, olaparib, reference compound]
SARS-CoV-2 [2]; Severe acute respiratory syndrome coronavirus 2, Vero C1008, 48 h, 3.2 μM, Vero-E6, MOI 0.05, 48 h, different batches, read-out: Inhibiting rate, %
  inhibition at 3.2 µM: ~12%
[12]
  CC50 at 48 h: 100 to 300 µM

## CCOC(=O)C1=C[C@@H](OC(CC)CC)[C@H](NC(C)=O)[C@@H](N)C1 [Oseltamivir]
SARS-CoV-2 [2]; [13]
  inhibition at 3 µM: -13.5%

## CC(=O)N[C@H]1[C@H]([C@H](O)[C@H](O)CO)OC(C(=O)O)=C[C@@H]1N=C(N)N [Zanamivir]
SARS-CoV-2 [2]; [13]
  inhibition at 3 µM: -10.7%

## CNCc1ccc(-c2cc3cc(F)cc(C(N)=O)c3o2)cc1 [mefuparib hydrochloride]
[12]
  CC50 at 48 h: ~92 µM
Vero-E6 cells
  Inhibitory effect on the cells (toxicity): no inhibitory effect on the cells
